Measurements published in patent publication US20070117770A1, “Human ribosomal DNA (rDNA) and ribosomal RNA (rRNA) nucleic acids and uses thereof” (Cylene Pharmaceuticals, Inc., priority 2005, published 2007).

Columns and labels:
Experiment in all cases: Protein kinase inhibition assay
Format in all cases: biochemical
[1] = target: SAPK3(h) (Homo sapiens, UniProt P53778); conditions: read-out: percent residual activity of SAPK3(h)
Experimental: (§1) Certain compounds were tested for activity in protein kinase inhibition assays. All substrates were dissolved and diluted to working stocks in de-ionized water, apart from histone H1 (10× working stock in 20 mM MOPS pH 7.0), PDKtide (10× working stock in 50 mM Tris pH 7.0) ATF2 (which is typically stored at a 20× working stock in 50 mM Tris pH 7.5, 150 mM NaCl, 0.1 mM EGTA, 0.03% Brij-35, 50% glycerol, 1 mM benzamidine, 0.2 mM PMSF and 0.1% R-mercaptoethanol), KKLNRTLSFAEPG (SEQ ID NO:203) and RRRLSFAEPG (SEQ ID NO:204) (50 mM HEPES pH 7.4) and GGEEEEYFELVKKKK (SEQ ID NO:205) (20 mM MOPS pH 7.0). All kinases were pre-diluted to a 10× working concentration prior to addition into the assay. The composition of the dilution buffer for each kinase is detailed below.
(§2) In a final reaction volume of 25 μl, SAPK3 (h) (5-10 mU) is incubated with 25 mM Tris pH 7.5, 0.02 mM EGTA, 0.33 mg/ml myelin basic protein, 10 mM MgAcetate and [gamma-33P-ATP] (specific activity approx. 500 cpm/pmol, concentration as required). The reaction is initiated by the addition of the MgATP mix. After incubation for 40 minutes at room temperature, the reaction is stopped by the addition of 5 μl of a 3% phosphoric acid solution. 10 μl of the reaction is then spotted onto a P30 filtermat and washed three times for 5 minutes in 75 mM phosphoric acid and once in methanol prior to drying and scintillation counting.

[2] = target: CDK1/cyclinB(h) (Homo sapiens, UniProt P06493); conditions: read-out: percent residual activity of CDK1/cyclinB(h)
Sequence of CDK1/cyclinB(h) (P06493 whole entry): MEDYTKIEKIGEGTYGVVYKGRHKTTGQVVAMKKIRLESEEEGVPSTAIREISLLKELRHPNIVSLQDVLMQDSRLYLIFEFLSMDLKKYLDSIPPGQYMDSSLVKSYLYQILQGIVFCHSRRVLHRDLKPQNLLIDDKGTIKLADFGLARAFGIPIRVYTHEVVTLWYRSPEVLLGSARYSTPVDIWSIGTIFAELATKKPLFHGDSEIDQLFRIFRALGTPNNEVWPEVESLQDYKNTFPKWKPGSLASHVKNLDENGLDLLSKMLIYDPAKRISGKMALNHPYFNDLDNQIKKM
Sequence of CDK1/cyclinB(h) (P14635 whole entry partner): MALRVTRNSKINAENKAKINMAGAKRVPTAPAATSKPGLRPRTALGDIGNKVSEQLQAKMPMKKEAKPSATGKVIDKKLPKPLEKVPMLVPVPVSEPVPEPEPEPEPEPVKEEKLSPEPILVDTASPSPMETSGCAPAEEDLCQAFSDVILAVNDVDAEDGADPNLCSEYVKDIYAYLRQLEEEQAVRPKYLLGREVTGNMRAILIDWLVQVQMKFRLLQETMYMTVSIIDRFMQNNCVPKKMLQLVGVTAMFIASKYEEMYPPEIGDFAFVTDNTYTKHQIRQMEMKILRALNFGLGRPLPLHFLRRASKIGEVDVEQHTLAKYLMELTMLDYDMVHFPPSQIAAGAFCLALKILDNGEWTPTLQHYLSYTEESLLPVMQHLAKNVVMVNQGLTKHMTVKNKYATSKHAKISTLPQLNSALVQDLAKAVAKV
Experimental: as §1
as §2, with “μl, CDK1/cyclinB” for “μl, SAPK3”, “with 8” for “with 25”, “mM MOPS” for “mM Tris”, “pH 7.0, 0.2” for “pH 7.5, 0.02”, “mM EDTA, 0.1” for “mM EGTA, 0.33”, “mg/ml histone H1,” for “mg/ml myelin basic protein,”

[3] = target: Aurora-A(h) (Homo sapiens, UniProt O14965); conditions: read-out: percent residual activity of Aurora-A(h)
Sequence of Aurora-A(h) (O14965 whole entry): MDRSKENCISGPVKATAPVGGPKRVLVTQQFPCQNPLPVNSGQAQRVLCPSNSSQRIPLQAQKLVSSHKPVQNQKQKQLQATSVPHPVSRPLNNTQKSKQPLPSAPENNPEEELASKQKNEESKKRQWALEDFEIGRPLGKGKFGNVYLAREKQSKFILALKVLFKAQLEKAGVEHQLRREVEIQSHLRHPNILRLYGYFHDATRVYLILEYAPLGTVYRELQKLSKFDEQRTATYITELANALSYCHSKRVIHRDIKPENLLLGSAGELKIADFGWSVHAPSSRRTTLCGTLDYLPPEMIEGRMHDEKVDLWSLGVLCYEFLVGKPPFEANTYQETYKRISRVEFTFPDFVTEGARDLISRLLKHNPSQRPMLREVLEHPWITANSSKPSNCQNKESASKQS
Experimental: as §1
In a final reaction volume of 25 μl, Aurora-A (h) (5-10 mU) is incubated with 8 mM MOPS pH 7.0, 0.2 mM EDTA, 200 μM LRRASLG (SEQ ID NO:209) (Kemptide), 10 mM MgAcetate and [gamma-33P-ATP] (specific activity approx. 500 cpm/pmol, concentration as required). The reaction is initiated by the addition of the MgATP mix. After incubation for 40 minutes at room temperature, the reaction is stopped by the addition of 5 μl of a 3% phosphoric acid solution. […]

[4] = target: PRAK(h) (Homo sapiens, UniProt Q8IW41); conditions: read-out: percent residual activity of PRAK(h)
Sequence of PRAK(h) (Q8IW41 whole entry): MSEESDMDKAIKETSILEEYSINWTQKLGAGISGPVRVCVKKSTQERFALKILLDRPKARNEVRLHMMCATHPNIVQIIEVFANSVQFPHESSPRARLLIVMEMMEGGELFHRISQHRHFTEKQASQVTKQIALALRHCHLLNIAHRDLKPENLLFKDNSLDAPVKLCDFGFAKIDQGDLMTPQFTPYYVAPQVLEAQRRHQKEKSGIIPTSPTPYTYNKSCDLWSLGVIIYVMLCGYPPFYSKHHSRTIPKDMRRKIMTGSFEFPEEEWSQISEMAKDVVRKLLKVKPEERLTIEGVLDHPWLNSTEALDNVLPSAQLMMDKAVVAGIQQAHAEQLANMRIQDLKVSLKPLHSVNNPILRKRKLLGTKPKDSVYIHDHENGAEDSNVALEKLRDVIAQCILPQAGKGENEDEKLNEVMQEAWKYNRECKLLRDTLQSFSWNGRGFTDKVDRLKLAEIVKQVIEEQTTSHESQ
Experimental: as §1
In a final reaction volume of 25 μl, PRAK (h) (5-10 mU) is incubated with 50 mM Na R-glycerophosphate pH 7.5, 0.1 mM EGTA, 30 μM KKLRRTLSVA (SEQ ID NO:212), 10 mM MgAcetate and [gamma-33P-ATP) (specific activity approx. 500 cpm/pmol, concentration as required). The reaction is initiated by the addition of the MgATP mix. After incubation for 40 minutes at room temperature, the reaction is stopped by the addition of 5 μl of a 3% phosphoric acid solution. […]

[5] = target: IRAK4(h) (Homo sapiens, UniProt Q9NWZ3); conditions: read-out: percent residual activity of IRAK4(h)
Sequence of IRAK4(h) (Q9NWZ3 whole entry): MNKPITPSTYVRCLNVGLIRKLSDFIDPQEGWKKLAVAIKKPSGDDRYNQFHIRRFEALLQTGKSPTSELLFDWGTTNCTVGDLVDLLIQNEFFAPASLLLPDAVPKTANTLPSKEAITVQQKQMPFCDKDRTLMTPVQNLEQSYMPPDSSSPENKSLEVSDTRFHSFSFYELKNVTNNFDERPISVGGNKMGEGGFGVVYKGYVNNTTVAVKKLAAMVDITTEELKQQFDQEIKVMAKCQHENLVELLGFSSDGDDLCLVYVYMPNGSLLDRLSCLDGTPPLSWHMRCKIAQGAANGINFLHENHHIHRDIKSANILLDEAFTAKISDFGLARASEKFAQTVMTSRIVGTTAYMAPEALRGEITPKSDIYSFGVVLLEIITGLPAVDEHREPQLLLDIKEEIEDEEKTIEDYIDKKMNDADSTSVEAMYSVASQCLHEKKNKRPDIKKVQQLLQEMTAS
Experimental: as §1
as §2, with “μl, IRAK4” for “μl, SAPK3”, “with 8” for “with 25”, “mM MOPS” for “mM Tris”, “pH 7.0, 0.2” for “pH 7.5, 0.02”, “mM EDTA,” for “mM EGTA,”

[6] = target: CaMKIV(h) (Homo sapiens, UniProt Q16566); conditions: read-out: percent residual activity of CaMKIV(h)
Experimental: as §1
In a final reaction volume of 25 μl, CaMKIV (h) (5-10 mU) is incubated with 40 mM HEPES pH 7.4, 5 mM CaCl2, 30 μg/ml calmodulin, 30 μM KKLNRTLSVA (SEQ ID NO:212), 10 mM MgAcetate and [gamma-33P-ATP] (specific activity approx. 500 cpm/pmol, concentration as required). The reaction is initiated by the addition of the MgATP mix. After incubation for 40 minutes at room temperature, the reaction is stopped by the addition of 5 μl of a 3% phosphoric acid solution. […]

Sequence of SAPK3(h) (P53778 whole entry): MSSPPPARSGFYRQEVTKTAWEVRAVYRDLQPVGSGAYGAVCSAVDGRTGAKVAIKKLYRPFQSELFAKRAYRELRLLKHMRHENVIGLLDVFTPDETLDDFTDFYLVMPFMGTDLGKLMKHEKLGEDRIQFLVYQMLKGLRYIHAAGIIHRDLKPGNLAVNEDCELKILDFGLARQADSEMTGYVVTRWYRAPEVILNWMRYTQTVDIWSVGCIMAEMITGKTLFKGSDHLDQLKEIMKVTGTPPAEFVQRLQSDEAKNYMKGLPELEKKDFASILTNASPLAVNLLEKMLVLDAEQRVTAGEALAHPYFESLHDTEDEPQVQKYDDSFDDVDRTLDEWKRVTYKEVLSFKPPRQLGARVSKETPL

For `CN1CCCC1CCNC(=O)c1cn2c3c(c(N4CCC(c5cnccn5)C4)c(F)cc3c1=O)Oc1cc3ccccc3cc1-2` (stereo not drawn) [Compound A-1], which remaining activity at 2.5 µM [1] is on record?
Its remaining activity at 2.5 µM is 85%.

And the remaining activity at 2.5 µM [2]?
The remaining activity at 2.5 µM was 84%.

What about the remaining activity at 2.5 µM [3] of the same compound?
The remaining activity at 2.5 µM was 43%.

What about the remaining activity at 2.5 µM [4] of the same compound?
Its remaining activity at 2.5 µM is 105%.

What about the remaining activity at 2.5 µM [5] of the same compound?
The remaining activity at 2.5 µM was 98%.

And the remaining activity at 2.5 µM [6]?
The remaining activity at 2.5 µM was 124%.

What does the source list for `CC(=O)N1CCN(c2ccc3c(=O)c(C(=O)NCCN4CCCC4)c4n(C)c5ccccc5n4c3n2)CC1` [Compound B-1]?
remaining activity at 2.5 µM [1]: 111%; remaining activity at 2.5 µM [2]: 93%; remaining activity at 2.5 µM [3]: 104%; remaining activity at 2.5 µM [4]: 111%; remaining activity at 2.5 µM [5]: 107%; remaining activity at 2.5 µM [6]: 122%
